According to the NIST ThermoML archive (doi:10.1016/j.jct.2014.01.006):

Assays:
[1] = for molar entropy: Vacuum adiabatic calorimetry; for mass density: Vibrating tube method; for vapor or sublimation pressure: Ebulliometric method (Recirculating still)
[2] = Molar enthalpy of transition or fusion; conditions: Crystal; Adiabatic calorimetry
[3] = molar heat capacity at saturation pressure; conditions: Crystal, Vacuum adiabatic calorimetry

c1ccc(-c2cccc3ccccc23)cc1 [1-phenylnaphthalene]
[1]
Conditions	Glass transition temperature [°C]	Triple point temperature [K]	mass density [kg/m3]	molar entropy [J/K/mol]	vapor or sublimation pressure [kPa]
5 K, Crystal	–	–	–	0.1746	–
10 K, Crystal	–	–	–	1.372	–
20 K, Crystal	–	–	–	7.849	–
30 K, Crystal	–	–	–	17.67	–
40 K, Crystal	–	–	–	28.64	–
50 K, Crystal	–	–	–	39.72	–
60 K, Crystal	–	–	–	50.49	–
70 K, Crystal	–	–	–	60.84	–
80 K, Crystal	–	–	–	70.76	–
90 K, Crystal	–	–	–	80.33	–
100 K, Crystal	–	–	–	89.56	–
120 K, Crystal	–	–	–	107.24	–
140 K, Crystal	–	–	–	124.19	–
160 K, Crystal	–	–	–	140.69	–
180 K, Crystal	–	–	–	156.93	–
200 K, Crystal	–	–	–	173.03	–
220 K, Crystal	–	–	–	189.11	–
240 K, Crystal	–	–	–	205.23	–
260 K, Crystal	–	–	–	221.4	–
280 K, Crystal	–	–	–	237.64	–
297.47 K, Crystal	–	–	–	251.92	–
297.47 K, Liquid	–	–	–	304.2	–
298.15 K, Liquid	–	–	–	304.91	–
300 K, Liquid	–	–	–	306.83	–
320 K, Liquid	–	–	–	327.32	–
323.14 K, Liquid	–	–	1082.7	–	–
340 K, Liquid	–	–	–	347.28	–
348.13 K, Liquid	–	–	1064.6	–	–
360 K, Liquid	–	–	–	366.78	–
373.12 K, Liquid	–	–	1045.5	–	–
375 K, Liquid	–	–	–	–	0.0218
380 K, Liquid	–	–	–	385.86	–
385 K, Liquid	–	–	–	–	0.0404
395 K, Liquid	–	–	–	–	0.0732
400 K, Liquid	–	–	–	404.57	–
405 K, Liquid	–	–	–	–	0.1265
415 K, Liquid	–	–	–	–	0.2126
420 K, Liquid	–	–	–	422.96	–
423.11 K, Liquid	–	–	1006.3	–	–
425.01 K, Liquid	–	–	–	–	0.3464
434.99 K, Liquid	–	–	–	–	0.549
440 K, Liquid	–	–	–	441.01	–
445 K, Liquid	–	–	–	–	0.849
448.11 K, Liquid	–	–	986.7	–	–
455 K, Liquid	–	–	–	–	1.283
460 K, Liquid	–	–	–	458.69	–
465 K, Liquid	–	–	–	–	1.896
466.36 K, Liquid	–	–	–	–	2
473.11 K, Liquid	–	–	967	–	–
475 K, Liquid	–	–	–	–	2.747
480 K, Liquid	–	–	–	476.01	3.281
485.69 K, Liquid	–	–	–	–	4.002
494.31 K, Liquid	–	–	–	–	5.336
498.11 K, Liquid	–	–	945	–	–
500 K, Liquid	–	–	–	493.05	–
507.13 K, Liquid	–	–	–	–	8.005
516.73 K, Liquid	–	–	–	–	10.67
520 K, Liquid	–	–	–	509.81	–
523.11 K, Liquid	–	–	921.4	–	–
524.52 K, Liquid	–	–	–	–	13.34
532.53 K, Liquid	–	–	–	–	16.64
539.27 K, Liquid	–	–	–	–	19.93
540 K, Liquid	–	–	–	526.33	–
548.1 K, Liquid	–	–	–	–	25.01
548.11 K, Liquid	–	–	–	–	25.02
557 K, Liquid	–	–	–	–	31.18
560 K, Liquid	–	–	–	542.62	–
565.96 K, Liquid	–	–	–	–	38.57
574.94 K, Liquid	–	–	–	–	47.36
580 K, Liquid	–	–	–	558.7	–
584.02 K, Liquid	–	–	–	–	57.82
593.13 K, Liquid	–	–	–	–	70.11
600 K, Liquid	–	–	–	574.57	–
602.33 K, Liquid	–	–	–	–	84.55
611.56 K, Liquid	–	–	–	–	101.34
620 K, Liquid	–	–	–	590.26	–
620.85 K, Liquid	–	–	–	–	120.8
630.2 K, Liquid	–	–	–	–	143.27
640 K, Liquid	–	–	–	605.78	–
650 K, Liquid	–	–	–	613.47	–
Crystal, Adiabatic calorimetry	–	297.47	–	–	–
Glass, Adiabatic calorimetry	-53	–	–	–	–

Conditions	Molar enthalpy of transition or fusion [kcal/mol]
[2]	3.716

[3]
Conditions	molar heat capacity [J/K/mol]
4.666 K	0.4324
5 K	0.5238
5.509 K	0.6901
6.425 K	1.131
7.372 K	1.671
8.352 K	2.37
9.357 K	3.243
10 K	3.899
10.42 K	4.348
11.58 K	5.512
12.87 K	7.134
14.3 K	8.921
15.89 K	11.19
17.68 K	13.76
19.66 K	16.7
20 K	17.2
21.86 K	20.01
24.3 K	23.71
26.97 K	27.69
29.93 K	31.88
30 K	31.97
33.23 K	36.31
36.92 K	40.94
40 K	44.47
41.05 K	45.63
45.65 K	50.63
50 K	54.82
50.77 K	55.5
56.48 K	60.59
57.01 K	60.79
